Like-named read-outs stand apart in the source and are kept apart here.
Legend:
[1] = phase I, patients with a variety of cancers; cited from earlier work
[2] = system: colon cancer; details: model of colon cancer; cited from earlier work
[3] = system: AML cell lines; experiment: Combination of CNDAC with hypomethylating agents in AML cell lines; assay type: cell-based; details: more apparent if cells are treated with hypomethylating agents first
Description: Previous studies by the applicant have shown that in AML cell lines, the active metabolite of sapacitabine, CNDAC, is synergistic with hypomethylating agents and the synergy is more apparent if cells are treated with hypomethylating agents first. The present invention relates to the identification of new and previously undefined subgroups of AML patients for which treatment with an alternating regimen of sapacitabine and decitabine is particularly effective.

[4] = system: acute myeloid leukemia (AML); assay type: in vivo, human
Description: WBC count can be determined, by any suitable institutional standard protocol. By way of example, suitable methods are described in Blumenreich [Reference 12] or Shafer [Reference 13], the contents of which are incorporated by reference.
SWOG classification was determined according to the criteria set out in Table 6 (Slovak et al, Reference 1; the contents of which are incorporated by reference). Cytogenetic testing can be carried out on peripheral blood, for example, in accordance with the standard methodology set forth in Slovak et al [Reference 1] or on bone marrow. Karyotyping or routine cytogenetic analysis involves the examination of chromosomes to identify structural abnormalities. Conventional cytogenetics (karyotyping) is the standard cytogenetic analysis for identifying gross chromosomal abnormalities: aneuploidies & structural (gain/loss, rearrangement). Chromosomes of a dividing human cell can be analysed clearly in white blood cells, specifically T lymphocytes, which are easily collected from blood. Cells from other tissues such as bone marrow, amniotic fluid, and other tissues can also be cultured for cytogenetic analysis. Cells from bone marrow are cultured for several days. Chromosomes in the growing and dividing cells are then fixed, spread on microscope slides, and stained to allow each of the chromosomes to be individually identified. Cytogenetic study was performed using the standard G-banding method (Reference 22, the contents of which are incorporated by reference). […] Findings based on the FISH technique were used as considered supportive information (FISH analysis is based on probes directed to specific chromosomal regions (molecular cytogenetics)) (Reference 22).

[5] = system: cell line that is resistant to cytarabine; details: cited from earlier work
[6] = Antecedent MDS/MPN No and WBC ≥10,000
[7] = Antecedent MDS/MPN Yes and WBC <10,000
[8] = SWOG Not unfavourable and WBC <10,000
[9] = SWOG Unfavourable and WBC ≥10,000

Compound: CCCCCCCCCCCCCCCC(=O)Nc1ccn([C@@H]2O[C@H](CO)[C@@H](O)[C@@H]2C#N)c(=O)n1 [(I), 1-(2-C-cyano-2-deoxy-β-D-arabino-pentofuranosyl)-N^4-palmitoyl cytosine]
- dose-limiting toxicity [1]: myelosuppression
- tolerability [1]: well tolerated
- anticancer activity [2]: strong
- increasing survival and preventing the spread of colon cancer metastases to the liver, compared with gemcitabine or 5-FU [2]: superior

Compound: N#C[C@H]1[C@H](O)[C@@H](CO)O[C@H]1n1ccc(N)nc1=O [CNDAC, 2′-C-cyano-2′-deoxy-1-β-D-arabino-pentofuranosyl cytosine]
- interaction with hypomethylating agents [3]: synergistic

Compound: Nc1ncn([C@H]2C[C@H](O)[C@@H](CO)O2)c(=O)n1 [Decitabine, 4-amino-1-(2-deoxy-β-D-erythro-pentofuranosyl)-1,3,5-triazin-2(1H)-one]
- 1-year survival (%) [4, 6]: 36.7%
- Median overall survival months [4, 6]: 5.5 months
- 1-year survival (%) [4, 7]: 27.5%
- CR rate (%) [4, 7]: 2.5%
- Median overall survival months [4, 7]: 4.9 months
- 1-year survival (%) ([4]; Antecedent MDS/MPN: No): 35.5%
- Median overall survival months ([4]; Antecedent MDS/MPN: No): 6.7 months
- 1-year survival (%) ([4]; Antecedent MDS/MPN: Yes): 32.9%
- CR median duration, months ([4]; Antecedent MDS/MPN: Yes): 7.1 months
- CR rate (%) ([4]; Antecedent MDS/MPN: Yes): 5.7%
- Median overall survival months ([4]; Antecedent MDS/MPN: Yes): 5.0 months
- 1-year survival (%) [4, 8]: 31.8%
- CR rate (%) [4, 8]: 5.7%
- Median overall survival months [4, 8]: 5.6 months
- 1-year survival (%) [4, 9]: 30.0%
- CR rate (%) [4, 9]: 0%
- Median overall survival months [4, 9]: 3.0 months
- 1-year survival (%) ([4]; SWOG category Not Unfavourable): 35.9%
- Median overall survival months ([4]; SWOG category Not Unfavourable): 5.7 months
- 1-year survival (%) ([4]; SWOG category Unfavourable): 33.0%
- CR rate (%) ([4]; SWOG category Unfavourable): 9.6%
- Median overall survival months ([4]; SWOG category Unfavourable): 5.7 months
- Median overall survival ([4]; all randomized patients (n=241 per arm)): 5.7 months
- Patients aged 80 and over, median overall survival, months ([4]; patients aged 80 and over with <10,000 WBC): 4.2 months
- 1-year survival (%) ([4]; patients with <10,000 WBC): 32.9%
- CR rate (%) ([4]; patients with <10,000 WBC): 8.6%
- Median overall survival months ([4]; patients with <10,000 WBC): 5.8 months
- 1-year survival (%) ([4]; patients with ≥10,000 WBC): 38.5%
- Median overall survival months ([4]; patients with ≥10,000 WBC): 5.5 months

Compound: Nc1ccn([C@@H]2O[C@H](CO)[C@@H](O)[C@@H]2O)c(=O)n1 [cytarabine]
- IC50 ([5]; after 5-azacitidine (upregulation of dCK)): 0.55 µM
- IC50 ([5]; before 5-azacitidine): 12.5 µM

Reference: patent US20190298718A1, “DOSING REGIMEN” (Cyclacel Limited, priority 2017, published 2019)
